The values that follow come from ChEMBL document CHEMBL1128111, “Synthesis and biological activity of a series of 4-aryl substituted benz[b]azepines: Antagonists at the strychnine-insensitive glycine site” (Bioorg Med Chem Lett, 1995).

The target of experiment [1] is T1, Glutamate NMDA receptor (Rattus norvegicus) (UniProt P35439+Q00959+Q00960+Q00961+Q62645+Q8VHN2+Q9R1M7). As to the kind of experiment: The compound was tested in vivo for its effect on the NMDA receptor complex following administration by iv infusion in red nucleus assay. The format is organism-based. On the set-up: unit not given here.
The target in experiment [2] is T1, Glutamate NMDA receptor (Rattus norvegicus). The experiment can be described thus: The compound was tested in vivo for its effect on the NMDA receptor complex following administration by iv infusion in red nucleus assay; Inactive. The format is organism-based.

Molecules are shown by their SMILES. Calls of active or inactive are those of the source. The calls are words filed in the database; no cut-off is given here.

Regarding `O=c1[nH]c2cc(Cl)ccc2c(O)c(-c2ccco2)c1=O`, the Activity in experiment [1] is 5.
Molecule `O=c1[nH]c2cc(Cl)ccc2c(O)c(-c2ccccn2)c1=O` returned an Activity in experiment [1] of 1.7.
Take `O=c1[nH]c2cc(Cl)ccc2c(O)c(-c2cccnc2)c1=O`: the outcome in experiment [2] was inactive.
In experiment [1], `O=c1[nH]c2cc(Cl)ccc2c(O)c(-c2cccs2)c1=O` came in with an Activity of 5.6.
On the same count and under the same terms, in the case of `COc1cccnc1-c1c(O)c(=O)[nH]c2cc(Cl)ccc2c1=O` it was 2.8.
Molecule `COc1ccc(-c2c(O)c(=O)[nH]c3cc(Cl)ccc3c2=O)cc1` gave an Activity in experiment [1] of 9.9.
`O=c1[nH]c2cc(Cl)ccc2c(O)c(-c2ccccc2)c1=O` registered an Activity in experiment [1] of 9.4.
